Results as given in patent US10758607B2, “Respiratory syncytial virus having cleavage-resistant G protein and related materials and methods” (The Research Institute at Nationwide Children's Hospital, priority 2015, dated 2020).
Entries after “also recorded” stand apart in the source; their conditions may differ. Where a SMILES comes first, the peptide text is derived from it.

Key:
[1] = test system: RSV G protein cleavage in Vero cells; assay: Cell-surface RSV G protein cleavage in rgRSV-infected cells treated with protease inhibitors (biotinylation, immunoblot with mAb L9); type: cell-based; details: 24 hpi
Description: To elucidate the class of protease responsible for G protein cleavage in Vero cells, cells were treated with increasing concentrations of protease inhibitors after inoculating with recombinant green fluorescent protein expressing RSV (rgRSV). Cells were incubated with rgRSV for 2 h with tipping at 37° C. before replacing inoculum with fresh cell culture medium. Drugs were added at different times post infection. In each case, uninfected, no drug, and vehicle (at the highest concentration used) were included in all experiments as controls. In all experiments at 24 hpi, cell surface proteins were biotinylated, cells lysed and equivalent amounts of protein from each sample were mixed with streptavidin beads.
Aprotinin, a serine protease inhibitor, leupeptin, a serine/cysteine protease inhibitor; or E-64, a cysteine protease inhibitor were added to the cell culture media (3.125 to 50 μg/ml) from 2-24 hpi. The most likely proteins to be incorporated into the virions are cell surface proteins, so the cell surfaced was biotinylated, proteins isolated from lysed cells with streptavidin beads, and immunobloted with L9, a mAb to the G protein, as a probe (FIG. 1A). In the untreated and vehicle treated samples most of the cell surface G protein was cleaved (˜55 kDa), leaving only a small portion of full length (˜90 kDa) G protein. […] Since both leupeptin and E64 block the activity of cysteine proteases, the protease responsible for cleavage of the G protein in Vero cells is a cysteine protease.
To narrow the field of cysteine proteases, cells were treated at 6 hpi with a more specific cysteine protease inhibitor, ALLM (0.1 to 100 μM).
RSV-infected HeLa and Vero cells were treated with a cathepsin B inhibitor, CA-074 (0.1 to 100 μM), or a cathepsin L inhibitor, cathepsin L inhibitor III (0.1 to 100 μM) 6 hpi.
Cathepsin L is a protease present primarily in the interior of the lysosome and is optimally active at acidic pH. Vero cells expressing the G protein were treated with chloroquine to raise the pH of the lysosome. […] To generate FIG. 4C, cells were inoculated with RSV or mock inoculated. 6 hpi the cells were treated with increasing concentrations of chloroquine. 24 hpi cells were biotinylated and G protein assayed
HeLa and Vero cells were rgRSV (MOI: 1) or mock inoculated. 2 hpi the inoculum was replaced with fresh complete medium, and 4 hpi cells the medium was changed again to complete medium with 2-fold dilutions of these protease inhibitors (Sigma-Aldrich, St. Louis, Mo.), dissolved in water: Aprotinin (3.125 to 50 μg/ml); Leupeptin (6.25 to 100 μg/ml); E-64 (6.25 to 100 μg/ml); or equal volumes of water in medium. In other experiments, cells were treated at 6 hpi with: 10-fold dilutions (0.1 to 100 μM) of: Cathepsin inhibitor I (Calbiochem); ALLM (Santa Cruz, Dallas, Tex.); Chloroquine diphosphate salt (Sigma Aldrich) or equivalent volumes of vehicle (water); CA-074 (Calbiochem); Cathepsin L inhibitor III (Calbiochem); or an equal volume of vehicle (DMSO) in medium.
At 24 hpi cells were biotinylated with Ez-link Sulfo-NHS-LC-Biotin (Thermo Fisher). Cells were lysed with lysis buffer containing 150 mM NaCl, 1% Triton X-100, 50 mM Tris, 0.1% SDS, and 1× Halt protease cocktail inhibitor (Thermo Fisher). Proteins were quantified using BCA protein assay kit (Pierce, Waltham, Mass.), and equal amounts of protein were added to high capacity streptavidin agarose beads (Thermo Fisher). The mixtures were rotated for 1 h at 4° C., the beads were pelleted and washed with lysis buffer (without protease cocktail inhibitor), NuPage LDS sample buffer was added, and boiled for 5 min, separated by NuPAGE Novex 4-12% bis-tris protein gels and transferred to nitrocellulose in an iBlot transfer stack, using the iBlot transferring system (Life Technologies) for immunoblot analysis. […]

[2] = test system: RSV G protein cleavage in Vero cells; assay: Cleavage of mutant G proteins transiently expressed in Vero cells (immunoblot); type: cell-based; details: for cleavage of G protein deletion mutants: 24 h post-transfection, vs wt G protein; for resistance to cleavage of alanine substitution G protein mutants: 24 hours post-transfection
Description: The G gene in the region of amino acid 210 was modified by deleting stretches of amino acids in this region (200-211, 204-213, 206-215, 208-217, or 209-213). […] Most of the mutants almost completely ablate cleavage. They all share amino acids 208-211. However, A206-210 and A206-215, both of which bring together amino acids that can also serve as a cathepsin L cleavage site. For FIG. 6B, the mutated G protein genes were transiently expressed in Vero cells. 24 h post-transfection cells were harvested, lysed and proteins were separated by SDS-PAGE, blotted and probed with mAb to the G protein.
To identify which amino acids are important for cleavage, individual amino acids in and around this region were changed to alanine. These mutant G proteins were transiently expressed in Vero cells and assessed by immunoblot (FIG. 6C). For FIG. 6C, the mutated G protein genes were transiently expressed in Vero cells. 24 hours post-transfection cells were harvested, lysed and proteins were separated by SDS-PAGE, blotted and probed with mAb to the G protein.
The strain A2 G protein plasmid was mutagenized using synthetic double strand gBlock DNA (Integrated DNA Technologies). Van91I (Thermo Fisher) and Xho I (New England Biolabs) were used to digest plasmid and gBlock. Doubly-digested plasmid was isolated by agarose gel electrophoresis. Digested gBlock and eluted plasmid DNAs were ligated with T4 DNA ligase (Promega, Madison, Wis.), and transformed into One Shot MachI-T1 chemically competent bacteria (Life Technologies). Plasmids were extracted using HiSpeed or Plasmid Plus Maxi kits (Qiagen).
Wild type G or frG proteins were expressed in HeLa or Vero cells following plasmid transfection with FuGene HD (Promega) or Lipofectamine LTX (Life Technologies), respectively, in medium containing 2% FBS. In frG experiments, medium was collected and concentrated using Ultracel-10 K centrifugal filters (EMD Millipore, Billerica, Mass.). For other transfection experiments, Vero cells were transfected using Lipofectamine 3000 (Life Technologies) in medium containing 10% FBS. For all transfection experiments, cells were lysed and protein quantified by BCA assay. Equivalent HeLa or Vero cell lysate protein and equivalent volumes of concentrated proteins from the medium were analyzed by immunoblotting.

[3] = rgRSV-infected Vero cells, 6.24 to 100 μg/ml

Molecule: CCCNC(=O)[C@H]1O[C@@H]1C(=O)N[C@H](C(=O)N1CCC[C@H]1C(=O)O)[C@@H](C)CC [CA-074]
- G protein cleavage (cell surface G protein) ([1]; RSV-infected HeLa and Vero cells, 0.1 to 100 μM at 6 hpi): RSV G protein cleavage in the presence; also recorded: did not change this pattern

Molecule: CC(C)C[C@H](NC(=O)[C@H]1O[C@@H]1C(=O)O)C(=O)NCCCCN=C(N)N [E64, E-64]
- G protein cleavage (cell surface G protein) [1, 3]: did, in a dose dependent manner
- G protein cleavage (cell surface G protein) ([1]; rgRSV-infected Vero cells, 6.24 to 100 μg/ml, listed as E-64): prevention of cleavage

Molecule: Δ206-210
- cleavage of G protein deletion mutants [2]: inhibit but do not abolished protein cleavage

Molecule: CSCC[C@@H](C=O)NC(=O)[C@H](CC(C)C)NC(=O)[C@H](CC(C)C)NC(C)=O [ALLM] (Ac-Leu-Leu-Met-aldehyde)
- G protein cleavage (cell surface G protein) ([1]; rgRSV-infected Vero cells, treated at 6 hpi, 0.1 to 100 μM): prevention of cleavage; also recorded: inhibited G protein cleavage

Molecule: CCN(CC)CCCC(C)Nc1ccnc2cc(Cl)ccc12 (stereo not drawn) [chloroquine]
- G protein on the cell surface (cleaved vs full length) ([1]; Vero cells, increasing concentrations of chloroquine from 6 hpi): primarily full length G protein; also recorded: decreased cleavage

Molecule: K209: RSV strain A2 G protein with alanine substitution at K209
- efficiency at inhibiting cleavage (rank among alanine substitutions) [2]: second most efficient
- resistance to cleavage of alanine substitution G protein mutants [2]: partially to nearly completely resistant to cleavage

Molecule: D214: RSV strain A2 G protein with alanine substitution at D214
- resistance to cleavage of alanine substitution G protein mutants [2]: partially to nearly completely resistant to cleavage

Molecule: K212: RSV strain A2 G protein with alanine substitution at K212
- resistance to cleavage of alanine substitution G protein mutants [2]: partially to nearly completely resistant to cleavage

Molecule: Aprotinin
- G protein cleavage (cell surface G protein) ([1]; rgRSV-infected Vero cells, 3.125 to 50 μg/ml): did not prevent G protein cleavage

Molecule: 206-215: RSV G protein with amino acids 206-215 deleted
- cleavage of G protein deletion mutants [2]: cleaved less efficiently than the wt G protein
- cleavage of G protein deletion mutants ([2]; listed as Δ206-215): inhibit but do not abolished protein cleavage

Molecule: CC(=O)N[C@@H](CC(C)C)C(=O)N[C@@H](CC(C)C)C(=O)N[C@H](C=O)CCCNC(=N)N [leupeptin]
- G protein cleavage (cell surface G protein) [1, 3]: did, in a dose dependent manner
- G protein cleavage (cell surface G protein) ([1]; rgRSV-infected Vero cells, 6.24 to 100 μg/ml, listed as Leupeptin): prevention of cleavage
